Source: PMC4225485, “The PHD1 finger of KDM5B recognizes unmodified H3K4 during the demethylation of histone H3K4me2/3 by KDM5B” (Protein & Cell, 2014)

Experiments:
KDM5B-PHD1-L325A = molecular target: T1, KDM5B-PHD1-L325A (Homo sapiens, UniProt Q9UGL1, L325A); experiment: ITC binding, PHD1 L325A mutant
T1 construct: PHDKDM5B (residues 306–360 aa); GST (N, cleaved yes); made in house
Procedure: (§1) A similar PHDKDM5B construct was used for the sample required in the NMR experiments. ^13C- and ^15N-labeled PHDKDM5B were prepared in M9 medium. Site-directed mutagenesis was performed using a QuikChange site-directed mutagenesis kit (Stratagene Inc. La Jolla, California, U.S.A). All of the DNA constructs were sequenced, and the molecular weights of the recombinant proteins were verified by mass spectrometry (MALDI).
(§2) To investigate whether the PHD1KDM5B finger and its mutants interact with unmodified or methylated H3K4 or H3K4mutants, the binding affinities of PHD1KDM5B or its mutants to H3 peptides were studied. An ITC-200 microcalorimeter (GE Healthcare) was used with a buffer containing 20 mmol/L Tris, 150 mmol/L NaCl, and 1% Triton X-100, pH 7.5 at 25°C. The reference titration of small molecules in the buffer was subtracted from the experimental data, and the data were fitted using the Origin 7.0 (OriginLab Corporation) software.

KDM5B-PHD1-D345A = molecular target: T2, KDM5B-PHD1-D345A (Homo sapiens, UniProt Q9UGL1, D345A); experiment: ITC binding, PHD1 D345A mutant; details: Table S1, pH 7.5, 25°C
T2 construct: PHDKDM5B (residues 306–360 aa); GST (N, cleaved yes); made in house
T2 sequence (Q9UGL1 306-360 D345A): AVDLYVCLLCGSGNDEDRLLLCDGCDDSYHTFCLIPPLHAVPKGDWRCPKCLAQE
Procedure: as §1, §2

KDM5B-PHD1-D322A = molecular target: T3, KDM5B-PHD1-D322A (Homo sapiens, UniProt Q9UGL1, D322A); experiment: ITC binding, PHD1 D322A mutant; details: Table S1, pH 7.5, 25°C
T3 construct: PHDKDM5B (residues 306–360 aa); GST (N, cleaved yes); made in house
T3 sequence (Q9UGL1 306-360 D322A): as the sequence (Q9UGL1 306-360 D345A) above, with D17A, A40D counted along it
Procedure: as §1, §2

KDM5B-PHD1-V311A = molecular target: T4, KDM5B-PHD1-V311A (Homo sapiens, UniProt Q9UGL1, V311A); experiment: ITC binding, PHD1 V311A mutant; details: Table S1, pH 7.5, 25°C
T4 construct: PHDKDM5B (residues 306–360 aa); GST (N, cleaved yes); made in house
T4 sequence (Q9UGL1 306-360 V311A): as the sequence (Q9UGL1 306-360 D345A) above, with V6A, A40D counted along it
Procedure: as §1, §2

KDM5B-PHD1-L309A = molecular target: T5, KDM5B-PHD1-L309A (Homo sapiens, UniProt Q9UGL1, L309A); experiment: ITC binding, PHD1 L309A mutant; details: Table S1, pH 7.5, 25°C
T5 construct: PHDKDM5B (residues 306–360 aa); GST (N, cleaved yes); made in house
T5 sequence (Q9UGL1 306-360 L309A): as the sequence (Q9UGL1 306-360 D345A) above, with L4A, A40D counted along it
Procedure: as §1, §2

KDM5B-PHD1-D332A = molecular target: T6, KDM5B-PHD1-D332A (Homo sapiens, UniProt Q9UGL1, D332A); experiment: ITC binding, PHD1 D332A mutant; details: Table S1, pH 7.5, 25°C
T6 construct: PHDKDM5B (residues 306–360 aa); GST (N, cleaved yes); made in house
T6 sequence (Q9UGL1 306-360 D332A): as the sequence (Q9UGL1 306-360 D345A) above, with D27A, A40D counted along it
Procedure: as §1, §2

KDM5B-PHD1-Y334A = molecular target: T7, KDM5B-PHD1-Y334A (Homo sapiens, UniProt Q9UGL1, Y334A); experiment: ITC binding, PHD1 Y334A mutant; details: Table S1, pH 7.5, 25°C
T7 construct: PHDKDM5B (residues 306–360 aa); GST (N, cleaved yes); made in house
T7 sequence (Q9UGL1 306-360 Y334A): as the sequence (Q9UGL1 306-360 D345A) above, with Y29A, A40D counted along it
Procedure: as §1, §2

KDM5B-PHD1-S333A = molecular target: T8, KDM5B-PHD1-S333A (Homo sapiens, UniProt Q9UGL1, S333A); experiment: ITC binding, PHD1 S333A mutant; details: Table S1, pH 7.5, 25°C
T8 construct: PHDKDM5B (residues 306–360 aa); GST (N, cleaved yes); made in house
T8 sequence (Q9UGL1 306-360 S333A): as the sequence (Q9UGL1 306-360 D345A) above, with S28A, A40D counted along it
Procedure: as §1, §2

KDM5B-PHD1-L324A = molecular target: T9, KDM5B-PHD1-L324A (Homo sapiens, UniProt Q9UGL1, L324A); experiment: ITC binding, PHD1 L324A mutant; details: Table S1, pH 7.5, 25°C
T9 construct: PHDKDM5B (residues 306–360 aa); GST (N, cleaved yes); made in house
T9 sequence (Q9UGL1 306-360 L324A): as the sequence (Q9UGL1 306-360 D345A) above, with L19A, A40D counted along it
Procedure: as §1, §2

KDM5B-PHD1-W351A = molecular target: T10, KDM5B-PHD1-W351A (Homo sapiens, UniProt Q9UGL1, W351A); experiment: ITC binding, PHD1 W351A mutant
T10 construct: PHDKDM5B (residues 306–360 aa); GST (N, cleaved yes); made in house
T10 sequence (Q9UGL1 306-360 W351A): as the sequence (Q9UGL1 306-360 D345A) above, with A40D, W46A counted along it
Procedure: as §1, §2

T1 sequence (Q9UGL1 306-360 L325A): as the sequence (Q9UGL1 306-360 D345A) above, with L20A, A40D counted along it

- binding affinity (KDM5B-PHD1-L325A): non-detectable
- Kd (KDM5B-PHD1-D345A): 6.7 ± 0.3 µM
- Kd (KDM5B-PHD1-D322A): 10.7 ± 0.5 µM
- Kd (KDM5B-PHD1-V311A): 8.2 ± 0.3 µM
- Kd (KDM5B-PHD1-L309A): 8.3 ± 0.5 µM
- Kd (KDM5B-PHD1-D332A): 11.3 ± 0.5 µM
- Kd (KDM5B-PHD1-Y334A): 12.6 ± 0.4 µM
- Kd (KDM5B-PHD1-S333A): 12.9 ± 0.5 µM
- Kd (KDM5B-PHD1-L324A): 15.3 ± 0.7 µM
- binding affinity (KDM5B-PHD1-W351A): non-detectable
Compound: C[C@H](N)C(=O)N[C@@H](CCCNC(=N)N)C(=O)N[C@H](C(=O)N[C@@H](CCCCN)C(=O)N[C@@H](CCC(N)=O)C(=O)N[C@H](C(=O)N[C@@H](C)C(=O)N[C@@H](CCCNC(=N)N)C(=O)N[C@@H](CCCCN)C(=O)N[C@@H](CO)C(=O)O)[C@@H](C)O)[C@@H](C)O [H3K4me0]
